pEC50: −log10 of the molar value.
The compounds below were run on HIV-IIIb (assay: Test A: Antiviral Assay in MT4 Cells). Settings: Human immunodeficiency virus 1, IIIB, MT4, 120 h.
Assay type: cell-based
In short: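 MT-4 cells pre-infected with HIV-IIIb (0.004 m.o.i.) at 37 °C, then exposed to 3-fold serial compound dilutions (10 concentrations, quadruplicate) in RPMI 1640/10% FBS. After 5 days at 37 °C, viability read by CellTiter-Glo luminescence.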

| SMILES | pEC50 |
| --- | --- |
| Cc1cc2nc(-c3cnc(C)c(-c4ccc5c(cnn5C)n4)c3)sc2c(-c2ccc(Cl)cc2)c1[C@H](OC(C)(C)C)C(=O)O [Compound 490, (S)-2-tert-butoxy-2-(7-(4-chlorophenyl)-5-methyl-2-(6-methyl-5-(1-methyl-1H-pyrazolo[4,3-b]pyridin-5-yl)pyridin-3-yl)benzo[d]thiazol-6-yl)acetic acid] | 8.52 |

Same assay, conditions: Human immunodeficiency virus 1, IIIB, MT4, 120 h, Table 1; MT-4 cells infected with HIV-IIIb, 5 days of incubation, CellTiter-Glo; read-out: EC50

| SMILES | pEC50 |
| --- | --- |
| Cc1cc2nc(-c3ccc4c(c3)c(N)nn4C)sc2c(-c2ccc(Cl)cc2)c1[C@H](OC(C)(C)C)C(=O)O [Compound 133] | 7.74 |
| Cc1cc2nc(-c3cccc(-c4ccc(N5CCN(C)CC5)nc4)c3)sc2c(-c2ccc(Cl)cc2)c1[C@H](OC(C)(C)C)C(=O)O [Compound 153] | 7.82 |
| Cc1cc2nc(-c3cccc(-c4ccc5c(cnn5C)c4)c3)sc2c(-c2cc(F)c3c(c2C)CCCO3)c1[C@H](OC(C)(C)C)C(=O)O (atropisomer, axis not shown) [Compound 168] | 7.38 |
| Cc1cc2nc(-c3cccc(-c4cncnc4)c3)sc2c(-c2ccc(Cl)cc2)c1[C@H](OC(C)(C)C)C(=O)O [Compound 106, (S)-2-tert-butoxy-2-(7-(4-chlorophenyl)-5-methyl-2-(3-(pyrimidin-5-yl)phenyl)benzo[d]thiazol-6-yl)acetic acid] | 6.99 |

The remaining lines, values ahead:

| pEC50 | SMILES |
| --- | --- |
| 6.87 | COc1ncccc1-c1cccc(-c2nc3cc(C)c([C@H](OC(C)(C)C)C(=O)O)c(-c4ccc(Cl)cc4)c3s2)c1 [Compound 160] |
| 7.92 | Cc1cc2nc(-c3ccnc(-c4cnc(N5CCN(C)CC5)nc4)c3)sc2c(-c2ccc(Cl)cc2)c1[C@H](OC(C)(C)C)C(=O)O [Compound 136] |

Same assay, conditions: Human immunodeficiency virus 1, IIIB, MT4, 120 h, Table 2; MT-4 cells infected with HIV-IIIb, 5 days of incubation, CellTiter-Glo; read-out: EC50

| SMILES | pEC50 |
| --- | --- |
| Cc1cc2nc(-c3cnc4c(c3)c(-c3cccnc3)cn4C)sc2c(-c2ccc(Cl)cc2)c1[C@H](OC(C)(C)C)C(=O)O [Compound 249, (S)-2-tert-butoxy-2-(7-(4-chlorophenyl)-5-methyl-2-(1-methyl-3-(pyridin-3-yl)-1H-pyrrolo[2,3-b]pyridin-5-yl)benzo[d]thiazol-6-yl)acetic acid] | 8.15 |
| Cc1cc2nc(-c3ccc4ncn(C)c4c3)sc2c(-c2ccc(Cl)cc2)c1[C@H](OC(C)(C)C)C(=O)O [Compound 283, (S)-2-tert-butoxy-2-(7-(4-chlorophenyl)-5-methyl-2-(1-methyl-1H-benzo[d]imidazol-6-yl)benzo[d]thiazol-6-yl)acetic acid] | 7.29 |
| Cc1cc2nc(-c3ccc4c(c3)c(N(C)C)nn4C)sc2c(-c2ccc(Cl)cc2)c1[C@H](OC(C)(C)C)C(=O)O [Compound 258, (S)-2-tert-butoxy-2-(7-(4-chlorophenyl)-2-(3-(dimethylamino)-1-methyl-1H-indazol-5-yl)-5-methylbenzo[d]thiazol-6-yl)acetic acid] | 7.89 |
| Cc1cc2nc(N3Cc4ccccc4C3)sc2c(-c2ccc(Cl)cc2)c1[C@H](OC(C)(C)C)C(=O)O [Compound 439] | 7.70 |
| Cc1cc2nc(-c3ccnc(-c4ccc5ccn(C)c(=O)c5c4)c3)sc2c(-c2ccc(Cl)cc2)c1[C@H](OC(C)(C)C)C(=O)O [Compound 448] | 8.05 |
| Cc1cc2nc(-c3ccnc(-c4cccc5c4CC(=O)N5C)c3)sc2c(-c2ccc(Cl)cc2)c1[C@H](OC(C)(C)C)C(=O)O [Compound 236, (S)-2-tert-butoxy-2-(7-(4-chlorophenyl)-5-methyl-2-(2-(1-methyl-2-oxoindolin-4-yl)pyridin-4-yl)benzo[d]thiazol-6-yl)acetic acid] | 7.51 |

Continued, values first:

| pEC50 | SMILES |
| --- | --- |
| 8.40 | Cc1cc2nc(N3CCc4c(c(C)nn4C)C3)sc2c(-c2ccc(Cl)cc2)c1[C@H](OC(C)(C)C)C(=O)O [Compound 441] |
| 7.82 | Cc1cc2nc(-c3nn(C)c4ccncc34)sc2c(-c2ccc(Cl)cc2)c1[C@H](OC(C)(C)C)C(=O)O [Compound 363] |
| 7.48 | Cc1cc2nc(-c3ccnc(-c4ccc5c(c4)N(C)C(=O)CO5)c3)sc2c(-c2ccc(Cl)cc2)c1[C@H](OC(C)(C)C)C(=O)O [Compound 393] |
| 7.74 | Cc1cc2nc(-c3ccnc(-c4cnc5c(c4)n(C)c(=O)n5C)c3)sc2c(-c2ccc(Cl)cc2)c1[C@H](OC(C)(C)C)C(=O)O [Compound 454] |
